Test results as given in patent US9416128B2, “Fused heterocyclic compounds as ion channel modulators” (Gilead Sciences, Inc., priority 2013, dated 2016).

Key:
[1] = tested on: hNaV1.3 (SCN3A); assay: Voltage-dependent inhibition of the NaV1.3 sodium channel; assay type: cell-based, human; conditions: voltage-dependent block at 1 uM
Method: HEK-293 cells stably expressing wild-type (WT) hNaV1.3 (SCN3A NCBI # NP_001075, SCN1B NCBI # NM_001037.4, SCN2B NCBI # NM_004588.2) were used to record INa. Cells are maintained with standard tissue culture procedures and stable channel expression is maintained with 800 ug/mL G418 and 3 ug/mL Puromycin in the culture medium. Unless otherwise noted, all reagents are purchased from Sigma-Aldrich (St Louis, Mo., U.S.A.).
Assays measuring Voltage-Dependent Block (VDB) of NaV1.3 are performed on an automated electrophysiology platform, QPatch 16X or QPatch HT (Sophion Bioscience, Copenhagen, Denmark), using the whole cell patch clamp technique to measure currents through the cell membrane. Series resistance compensation is set to 100% and series resistance and whole-cell compensation are performed automatically. Currents stored in the Sophion Bioscience Oracle database (Sophion Bioscience, Copenhagen, Denmark). Analysis is performed using QPatch Assay software and data are compiled in Excel 2010 (Microsoft, Seattle, Wash., U.S.A.).
The internal (pipette) solution consists of (in mM) 105 CsF, 10 NaF, 20 CsCl, 2 EGTA, 10 HEPES, 10 Dextrose with a pH of 7.35 and osmolarity of 300 mOsmol/kg. The external (bath) solution contains in (mM): 80 NaCl, 60 Choline-Cl, 4 KCl, 1.8 CaCl2, 1 MgCl2, 10 dextrose, 10 HEPES, with a pH of 7.35 and osmolarity of 310 mOsmol/kg. Experiments are carried out at 23-25° C.
Compound stocks are routinely made by the Gilead Sample Bank in vials to 10 mM in dimethyl sulfoxide (DMSO). In some cases, when compounds are not soluble in DMSO, they are made in 100% ethanol. […] Cells are allowed to stabilize for 10 min after establishment of the whole-cell configuration before current is measured. […]
Voltage-dependent block of NaV1.3 peak current was measured during a voltage step to 0 mV (20 ms) following a voltage step pre-conditioning steps (−55 mV for 10 sec followed by −120 mV for 10 ms). […] The voltage protocol for VDB was performed every 45 seconds in the absence and presence of compound and percentage inhibition was calculated with respect to the compound free condition.

[2] = tested on: ischemia-induced ST segment elevation; assay: Ischemia-induced ST segment elevation in anesthetized rabbits; assay type: in vivo, rabbit; conditions: iv infusion, 0.9 uM concentration
Method: This study was undertaken to determine the anti-ischemic effects of compounds of the present disclosure in an in vivo rabbit model.
Female New Zealand rabbits (3.0-4.0 kg) were purchased from Western Oregon Rabbitry. Animals were housed on a 12-h light and dark cycle and received standard laboratory chow and water. All experiments were performed in accordance with the Guide for the Care and Use of Laboratory Animals published by The National Research Council and with the experimental protocol approved by the Institutional Animal Care Committee of Gilead Sciences, Inc.
Rabbits were anesthetized with ketamine (35 mg/kg) and xylazine (5 mg/kg) intramuscular injection (im). A tracheotomy was performed and the trachea was intubated with an endotracheal tube. […]
Reference electrodes were placed in the open incision of the neck. The body temperature of the animal was monitored via a rectal thermometer and maintained at 37-40° C. by adjusting the surface temperature of the surgical table. […] The ischemic area was visualized by perfusing the heart with 1% Evans blue in saline and calculated as a percentage of total ventricular weight. […]

Row | Structure (SMILES) | NaV1.3 VDB % inhibition at 1 uM [1] [%] | inhibition in the rabbit ST segment elevation assay [2] [%]
1 | Cc1cc(OC(F)(F)F)ccc1-c1ccc2c(c1)CN(Cc1ncccn1)C(=O)O2 [Example 8, 6-(2-methyl-4-(trifluoromethoxy)phenyl)-3-(pyrimidin-2-ylmethyl)-3,4-dihydro-2H-benzo[e][1,3]oxazin-2-one] | 13.8 | 
2 | Cc1cc(-c2ccc3c(c2)CN(Cc2ncccn2)C(=O)O3)ccc1OC(F)(F)F [Example 5, 6-(3-methyl-4-(trifluoromethoxy)phenyl)-3-(pyrimidin-2-ylmethyl)-3,4-dihydro-2H-benzo[e][1,3]oxazin-2-one] | 31 | 
3 | COc1cc(OC(F)(F)F)ccc1-c1ccc2c(c1)CN(Cc1ncccn1)C(=O)O2 [Example 1, 6-(2-methoxy-4-(trifluoromethoxy)phenyl)-3-(pyrimidin-2-ylmethyl)-3,4-dihydro-2H-benzo[e][1,3]oxazin-2-one] |  | 58
4 | O=C1Oc2ccc(-c3ccc(OC(F)(F)F)cc3F)cc2CN1Cc1ncccn1 [Example 7, 6-(2-fluoro-4-(trifluoromethoxy)phenyl)-3-(pyrimidin-2-ylmethyl)-3,4-dihydro-2H-benzo[e][1,3]oxazin-2-one] | 32 | 
